What was measured:
[1] = target: T1, catecholamine-O-methyltransferase (COMT), human liver enzyme (Homo sapiens, UniProt P21964); assay: COMT inhibitory activity (O-methylation of 1,2-dihydroxybenzene with S-adenosyl-L-[methyl-3H]methionine, crude human liver enzyme); assay type: biochemical; settings: COMT inhibition; crude enzyme from human liver (8.3 μg protein); pH 8.0; 37° C., 30 minutes; 100 μM 1,2-dihydroxybenzene
T1 construct: prepared from human liver; from tissue; host or cells: human liver, crude enzyme
T1 sequence (P21964 1-221 isoform P21964-2): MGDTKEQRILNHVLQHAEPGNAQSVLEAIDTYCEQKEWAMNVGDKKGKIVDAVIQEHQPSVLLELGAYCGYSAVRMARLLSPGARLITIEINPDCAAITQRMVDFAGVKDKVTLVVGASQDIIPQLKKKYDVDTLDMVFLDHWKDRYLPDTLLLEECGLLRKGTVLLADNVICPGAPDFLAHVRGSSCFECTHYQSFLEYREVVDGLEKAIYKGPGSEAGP
Experimental: The assay mixture (120 μl) in a mini scintillation vial contained 68 mM K-PO4 buffer (pH 8.0), 10 mM MgCl2, 2.2 mM dithiothreitol, 7.8 U/ml adenosine deaminase, 5 mM EGTA, 100 μM 1,2-dihydroxybenzene, 183 μM S-adenosyl-L-[methyl-^3 H] […] Ci/mol, Amersham) and human liver enzyme. In the standard assay, 5 μl of inhibitor was added to the incubation mixture and the reaction was started with the supplementation of crude enzyme (8.3 μg protein) prepared from human liver. After incubation at 37° C. for 30 minutes, the reaction was stopped by immersion of the vials in ice water. 100 μl of 1M guaiacol HCl was added and the samples were extracted with 2 ml of a scintillation cocktail of hexane/toluene (4:1). The radioactivity of O^3 H-methylated products were measured by a liquid scintillation counter (LSC1100, Aloka).

Acute toxicity = settings: in vivo
Solubility = assay type: physicochemical

Compound | IC50 [1] [nM] | Acute toxicity (Acute toxicity) | Solubility (Solubility; in Dimethylsulfoxide (DMSO)) | Solubility (Solubility; in H2 O) | Solubility (Solubility; in Methanol)
CCCOC(=O)c1cc(O)c(O)c(O)c1 [Propyl gallate] | 455 |  |  |  | 
O=c1cccccc1O [Tropolone] | 963000 |  |  |  | 
COc1c(O)cc2cc(C(=O)O)cc(O)c(=O)c2c1O [8-O-methylpurpurogallincarboxylic acid] | 2230 | not observed | Soluble | Slightly soluble | Soluble
